Source: ChEMBL document CHEMBL4609972, “Histone deacetylase 8 (HDAC8) and its inhibitors with selectivity to other isoforms: An overview” (Eur J Med Chem, 2019)
Square brackets hold non-standard residues; d marks the D form. Peptide text beside a SMILES is read from it. * marks the point of attachment. Asu = N[C@@H](CCCCCC(=O)O)C(=O)O; NHOH = ON*

Tests used:
[1] = molecular target: T1, Protein deacetylase HDAC6 (Homo sapiens, UniProt Q9UBN7); experiment: Inhibition of HDAC6 (unknown origin)
T1 sequence (Q9UBN7 whole entry): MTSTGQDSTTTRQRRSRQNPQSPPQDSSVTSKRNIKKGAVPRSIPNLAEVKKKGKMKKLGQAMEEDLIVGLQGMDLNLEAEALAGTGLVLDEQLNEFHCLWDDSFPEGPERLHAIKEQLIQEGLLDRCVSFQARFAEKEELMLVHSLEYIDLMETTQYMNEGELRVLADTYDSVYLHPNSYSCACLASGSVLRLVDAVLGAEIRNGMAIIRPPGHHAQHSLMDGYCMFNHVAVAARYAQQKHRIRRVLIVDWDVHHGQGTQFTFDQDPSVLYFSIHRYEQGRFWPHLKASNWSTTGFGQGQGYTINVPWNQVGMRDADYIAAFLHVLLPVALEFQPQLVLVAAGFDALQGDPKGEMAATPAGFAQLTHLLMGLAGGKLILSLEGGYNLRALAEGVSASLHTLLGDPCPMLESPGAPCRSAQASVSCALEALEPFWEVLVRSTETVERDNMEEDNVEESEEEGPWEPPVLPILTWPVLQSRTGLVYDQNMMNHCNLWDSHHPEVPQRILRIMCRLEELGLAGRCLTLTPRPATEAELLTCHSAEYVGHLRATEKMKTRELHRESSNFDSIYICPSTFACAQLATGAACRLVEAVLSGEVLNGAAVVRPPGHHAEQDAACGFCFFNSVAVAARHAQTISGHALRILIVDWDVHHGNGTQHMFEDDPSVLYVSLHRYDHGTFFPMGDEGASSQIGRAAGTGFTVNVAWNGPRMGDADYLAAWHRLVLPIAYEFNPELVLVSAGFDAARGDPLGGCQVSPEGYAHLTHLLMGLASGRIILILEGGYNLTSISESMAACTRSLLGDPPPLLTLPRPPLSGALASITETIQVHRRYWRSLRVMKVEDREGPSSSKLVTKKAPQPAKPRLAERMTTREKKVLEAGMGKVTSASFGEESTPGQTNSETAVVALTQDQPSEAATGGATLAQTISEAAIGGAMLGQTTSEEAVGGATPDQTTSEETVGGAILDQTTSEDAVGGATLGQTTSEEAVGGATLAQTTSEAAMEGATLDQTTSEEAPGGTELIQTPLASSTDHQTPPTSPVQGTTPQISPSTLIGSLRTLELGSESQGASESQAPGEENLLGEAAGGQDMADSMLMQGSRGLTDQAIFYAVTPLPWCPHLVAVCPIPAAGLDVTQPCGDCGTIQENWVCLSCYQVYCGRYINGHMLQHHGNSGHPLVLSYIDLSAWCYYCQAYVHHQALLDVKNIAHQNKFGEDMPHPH

[2] = molecular target: T2, Histone deacetylase 8 (Homo sapiens, UniProt Q9BY41); experiment: Inhibition of HDAC8 (unknown origin)
T2 sequence (Q9BY41 whole entry): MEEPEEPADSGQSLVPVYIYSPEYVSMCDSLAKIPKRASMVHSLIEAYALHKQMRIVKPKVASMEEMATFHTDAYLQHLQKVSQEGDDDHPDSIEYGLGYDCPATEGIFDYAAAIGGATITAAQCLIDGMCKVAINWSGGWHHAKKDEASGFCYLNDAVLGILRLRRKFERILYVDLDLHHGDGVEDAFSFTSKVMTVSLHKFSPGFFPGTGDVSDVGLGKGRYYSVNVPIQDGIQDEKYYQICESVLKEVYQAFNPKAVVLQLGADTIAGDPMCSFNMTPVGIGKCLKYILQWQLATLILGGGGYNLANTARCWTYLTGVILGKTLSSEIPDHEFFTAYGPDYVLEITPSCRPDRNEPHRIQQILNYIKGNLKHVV

[3] = molecular target: 72 kDa type IV collagenase (Homo sapiens, UniProt P08253); experiment: Inhibition of MMP2 (unknown origin)
72 kDa type IV collagenase, sequence (P08253 whole entry): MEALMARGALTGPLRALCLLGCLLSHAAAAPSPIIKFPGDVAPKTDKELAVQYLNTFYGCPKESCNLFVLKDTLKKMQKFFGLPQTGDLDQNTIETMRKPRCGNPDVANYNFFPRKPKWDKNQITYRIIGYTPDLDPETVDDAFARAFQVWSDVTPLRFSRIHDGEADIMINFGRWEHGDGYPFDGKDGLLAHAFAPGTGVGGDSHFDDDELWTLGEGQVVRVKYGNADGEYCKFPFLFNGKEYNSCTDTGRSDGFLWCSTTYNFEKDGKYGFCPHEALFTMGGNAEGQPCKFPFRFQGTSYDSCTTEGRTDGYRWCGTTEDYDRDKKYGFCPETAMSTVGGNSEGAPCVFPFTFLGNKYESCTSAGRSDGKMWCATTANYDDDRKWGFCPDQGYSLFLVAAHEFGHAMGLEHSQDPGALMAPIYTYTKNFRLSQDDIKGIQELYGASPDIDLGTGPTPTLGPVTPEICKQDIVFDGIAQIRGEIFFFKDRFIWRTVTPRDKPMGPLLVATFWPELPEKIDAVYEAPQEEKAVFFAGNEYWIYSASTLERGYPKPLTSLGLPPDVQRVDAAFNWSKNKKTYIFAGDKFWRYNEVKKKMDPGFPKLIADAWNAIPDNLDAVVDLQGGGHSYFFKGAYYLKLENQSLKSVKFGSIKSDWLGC

[4] = molecular target: Histone deacetylase; experiment: Inhibition of HDAC (unknown origin); format: protein assay, Homo sapiens

| SMILES | IC50 [1] [nM] | IC50 [2] [nM] | further results |
| --- | --- | --- | --- |
| O=C(NO)c1ccc(CN(CCO)C(=O)Cc2ccccc2)cc1 | 376 |  |  |
| O=C(O)CC[C@@H](NC(=O)Cc1ccc(Br)cc1)C(=O)NCc1ccc([N+](=O)[O-])cc1 |  | 2890 | IC50 [3]: 2890 nM |
| O=C(CCCCCNC(=O)c1ccc(NC(=O)NC(C(=O)Nc2cccc(C(F)(F)F)c2)c2ccccc2)cc1)NO (centres undefined) |  | 967 |  |
| O=C(CCCCCCC(=O)Nc1cc(C(F)(F)F)ccc1Cl)NO |  | 119 |  |
| O=C(NO)c1cccc(-c2nc(CSc3ccccc3)n[nH]2)c1 |  | 53 |  |
| O=C(NO)c1ccc(NCc2csc3ccccc23)cc1 | 1400 |  |  |
| CC(C)[C@@H](C#Cc1ccc(C(=O)NO)cc1)NC(=O)C1Cc2ccccc2O1 (some centres undefined) | 417 |  |  |
| CC[C@H](C)[C@@H]1NC(=O)[C@@H](Cc2ccc(OC)cc2)NC(=O)[C@H](CCCCCC(=O)NO)NC(=O)[C@H]2CCCN2C1=O (cyclo([Asu](NHOH)[dY](Me)I[dP])) |  |  | IC50 [4]: 3.32 nM |
